Measured values taken from PMC10449621, “Engineering cellular communication between light-activated synthetic cells and bacteria” (Nature Chemical Biology, 2023).
Values joined by “and” are separate entries in the source; they are usually repeats but may differ in a detail not shown here. Equal entries are not always repeated.

How the values were obtained:
Format in all cases: cell-based, E. coli XL10-Gold
[1] = system: BjaRS107R (B0034|CTG) receiver cells; assay: BjaR receiver cell AHSL dose-response (gfp reporter, plate reader)
Experimental: (§1) After four rounds of random mutagenesis, ON-selection and outgrowth, the OFF- and ON-states of 45 BjaR variants were screened by measuring their GFP fluorescence in the absence and presence of 1 nM IV-HSL. […] To understand the true impact of these mutations on receiver cell performance, the bjaRS107R (CTG) and bjaRWT (ACG) genes were cloned back into the reporter plasmid backbone without kanR.
(§2) The BjaR reporter plasmids were retransformed into E. coli XL10-Gold cells for each experiment. A single colony was used to inoculate 5 ml LB + Amp media and incubated at 37 °C, 225 r.p.m. overnight. Overnight cultures were diluted 1/250 or 1/500 in 5 ml M9 minimal media + Amp and incubated at 37 °C, 225 r.p.m. for 3 h and 45 min (until OD600 = ~0.075). Cultures were diluted down to OD600 = 0.05 with M9 minimal media + Amp, and 200 µl was added to wells of a 96-well plate containing 1 µl IV-HSL dissolved in DMSO or 1 µl BjaI CFPS reactions (IV-HSL concentrations obtained from serial dilution from 63.2 µM to 632 pM; final DMSO concentration = 0.5%). Cells were incubated at 37 °C, 800 r.p.m., in a thermomixer with a heated lid for 4 h. Fluorescence and OD600 were measured in a Tecan M1000 infinite plate reader (excitation, 488 nm; emission, 510 nm; bandwidth, 5 nm; gain, 101 and z position, 21,311 µm). The dose–response curves were fitted to the function indicated by Eq. (1), where a = maximal fluorescence output, b = basal fluorescence output, X = concentration of AHSL, GFP = fluorescence at the given condition, EC50 = AHSL at 50% maximal fluorescence output and h = hill coefficient. EC50 and h were derived using the nonlinear regression model based on Eq. (1), in MATLAB. A summary of the dose–response data is available in Supplementary Table 1.1 GFP=b+a−b/1+10^logEC50−X×h

[2] = system: BjaRWT (B0034|ACG) receiver cells; assay: as above
Experimental: as §1, §2

[3] = system: BjaRWT (B0034|CTG) receiver cells; assay: as above
Excerpt: These findings are consistent with the predicted translation initiation rates of the respective sequences—translation from the BBa_B0033 RBS provides 1% of protein yield compared to the BBa_B0034 RBS, just as an CTG start codon provides 1% of the protein yield compared to an ATG start codon[30],[31]. This also offers support as to why the ON-state gfp expression level increased in variants with a tighter OFF-state; more cellular resources were available for GFP synthesis when comparatively fewer were allocated to BjaR synthesis. To elucidate the impact of the S107R variant on gene circuit performance, we introduced the S107R variant alone back into the bjaRWT gene, in the context of the BBa_B0033 RBS background.
as §2

[4] = system: BjaRS107R (B0033|ATG) receiver cells; assay: IV-HSL biosynthesis by BjaI-expressing synthetic cells (GUVs), quantified with receiver cells; conditions: 10 nM IV-HSL control, Dilution -, sheet 4d
[5] = Escherichia coli, IV-HSL-activated gfp expression

CC(C)CC(=O)N[C@H]1CCOC1=O [IV-HSL, N-isovaleryl-L-homoserine lactone]
EC50 [1, 5]: 0.44 ± 0.04 nM | GFP ([1]; Log([ASHL]) -6.5): 37925 and 45810 and 36660 | Mean normalised fluorescence ([1]; Log([ASHL]) -6.5): 184153 | Normalised fluorescence ([1]; Log([ASHL]) -6.5): 205027 and 170089 and 177344 | GFP ([1]; Log([ASHL]) -7): 36122 and 43880 and 35340 | Mean normalised fluorescence ([1]; Log([ASHL]) -7): 165547 | Normalised fluorescence ([1]; Log([ASHL]) -7): 185321 and 153601 and 157719 | GFP ([1]; Log([ASHL]) -7.5): 35735 and 43795 and 35365 | Mean normalised fluorescence ([1]; Log([ASHL]) -7.5): 163310 | Normalised fluorescence ([1]; Log([ASHL]) -7.5): 180638 and 151602 and 157690 | GFP ([1]; Log([ASHL]) -8): 43912 and 35147 and 35505 | Mean normalised fluorescence ([1]; Log([ASHL]) -8): 161376 | Normalised fluorescence ([1]; Log([ASHL]) -8): 150185 and 151700 and 182243 | GFP ([1]; Log([ASHL]) -8.5): 44967 and 35318 and 37269 | Mean normalised fluorescence ([1]; Log([ASHL]) -8.5): 147580 | Normalised fluorescence ([1]; Log([ASHL]) -8.5): 140866 and 144147 and 157727 | GFP ([1]; Log([ASHL]) -9): 41968 and 33264 and 37415 | Mean normalised fluorescence ([1]; Log([ASHL]) -9): 127915 | Normalised fluorescence ([1]; Log([ASHL]) -9): 124650 and 118620 and 140474 | GFP ([1]; Log([ASHL]) -9.5): 22707 and 17817 and 19857 | Mean normalised fluorescence ([1]; Log([ASHL]) -9.5): 69560.7 | Normalised fluorescence ([1]; Log([ASHL]) -9.5): 65949.9 and 69200.5 and 73531.6 | GFP ([1]; Log([ASHL]) -10): 5295 and 3943 and 4882 | Mean normalised fluorescence ([1]; Log([ASHL]) -10): 15714.4 | Normalised fluorescence ([1]; Log([ASHL]) -10): 15242.3 and 14666.4 and 17234.6 | GFP ([1]; Log([ASHL]) -10.5): 1534 and 1232 and 1622 | Mean normalised fluorescence ([1]; Log([ASHL]) -10.5): 4749.74 | Normalised fluorescence ([1]; Log([ASHL]) -10.5): 4305.92 and 4298.44 and 5644.87 | GFP ([1]; Log([ASHL]) -11): 1122 and 884 and 1057 | Mean normalised fluorescence ([1]; Log([ASHL]) -11): 3184.98 | Normalised fluorescence ([1]; Log([ASHL]) -11): 3030.92 and 3019.01 and 3505.01 | GFP ([1]; Log([ASHL]) -11.5): 784 and 731 and 617 | Mean normalised fluorescence ([1]; Log([ASHL]) -11.5): 2156.19 | Normalised fluorescence ([1]; Log([ASHL]) -11.5): 2102.93 and 2315.04 and 2050.6 | fold activation of gfp expression ([1]; with vs without IV-HSL): ~ 88 fold | EC50 [2, 5]: 22.3 ± 2.59 nM | GFP ([2]; Log([ASHL]) -6.5): 41705 and 34148 and 40466 | Mean normalised fluorescence ([2]; Log([ASHL]) -6.5): 152634 | GFP ([2]; Log([ASHL]) -7): 36443 and 32999 and 38903 | Mean normalised fluorescence ([2]; Log([ASHL]) -7): 132540 | GFP ([2]; Log([ASHL]) -7.5): 26920 and 30479 and 35001 | Mean normalised fluorescence ([2]; Log([ASHL]) -7.5): 111442 | GFP ([2]; Log([ASHL]) -8): 23596 and 24216 and 12337 | Mean normalised fluorescence ([2]; Log([ASHL]) -8): 70550.8 | Mean normalised fluorescence ([2]; Log([ASHL]) -8.5): 28355.7 | Mean normalised fluorescence ([2]; Log([ASHL]) -9): 6838.99 | Mean normalised fluorescence ([2]; Log([ASHL]) -9.5): 1496.47 | GFP ([2]; Log([ASHL]) -10): 268 and 258 and 219 | Mean normalised fluorescence ([2]; Log([ASHL]) -10): 638.735 | GFP ([2]; Log([ASHL]) -10.5): 198 and 199 and 217 | Mean normalised fluorescence ([2]; Log([ASHL]) -10.5): 483.533 | GFP ([2]; Log([ASHL]) -11): 195 and 198 and 217 | Mean normalised fluorescence ([2]; Log([ASHL]) -11): 487.314 | GFP ([2]; Log([ASHL]) -11.5): 199 and 225 and 193 | Mean normalised fluorescence ([2]; Log([ASHL]) -11.5): 497.83 | fold activation of gfp expression ([2]; with vs without IV-HSL): ~ 309 fold | EC50 [3, 5]: 2.68 ± 0.48 nM | hill coefficient ([3]; IV-HSL dose-response curve): 1.41 | GFP ([3]; Log([ASHL]) -6.5): 43330 and 36104 and 38058 | Mean normalised fluorescence ([3]; Log([ASHL]) -6.5): 201726 | Normalised fluorescence ([3]; Log([ASHL]) -6.5): 210214 and 194525 and 200438 | GFP ([3]; Log([ASHL]) -7): 48602 and 34441 and 36003 | Mean normalised fluorescence ([3]; Log([ASHL]) -7): 195635 | Normalised fluorescence ([3]; Log([ASHL]) -7): 221814 and 183269 and 181822 | GFP ([3]; Log([ASHL]) -7.5): 42248 and 34562 and 36913 | Mean normalised fluorescence ([3]; Log([ASHL]) -7.5): 179671 | Normalised fluorescence ([3]; Log([ASHL]) -7.5): 188397 and 176029 and 174588 | GFP ([3]; Log([ASHL]) -8): 35155 and 35886 and 43108 | Mean normalised fluorescence ([3]; Log([ASHL]) -8): 165401 | Normalised fluorescence ([3]; Log([ASHL]) -8): 168235 and 168127 and 159840 | GFP ([3]; Log([ASHL]) -8.5): 36208 and 37675 and 33945 | Mean normalised fluorescence ([3]; Log([ASHL]) -8.5): 139606 | Normalised fluorescence ([3]; Log([ASHL]) -8.5): 151871 and 150220 and 116729 | Mean normalised fluorescence ([3]; Log([ASHL]) -9): 82973.4 | Mean normalised fluorescence ([3]; Log([ASHL]) -9.5): 25740.3 | Mean normalised fluorescence ([3]; Log([ASHL]) -10): 6739.8 | GFP ([3]; Log([ASHL]) -10.5): 896 and 846 and 722 | Mean normalised fluorescence ([3]; Log([ASHL]) -10.5): 2692.26 | Normalised fluorescence ([3]; Log([ASHL]) -10.5): 2989.77 and 2763.44 and 2323.58 | GFP ([3]; Log([ASHL]) -11): 668 and 631 and 690 | Mean normalised fluorescence ([3]; Log([ASHL]) -11): 2167.6 | Normalised fluorescence ([3]; Log([ASHL]) -11): 2233.16 and 2007.95 and 2261.7 | GFP ([3]; Log([ASHL]) -11.5): 630 and 671 and 595 | Mean normalised fluorescence ([3]; Log([ASHL]) -11.5): 2035.58 | Normalised fluorescence ([3]; Log([ASHL]) -11.5): 2037.65 and 2202.61 and 1866.48 | Mean normalised fluorescence [4]: 190979 | Normalised fluorescence ([4]; Expt1-3): 175106 and 224036 and 173796 | GFP ([4]; raw fluorescence ex 488/em 510 nm, Expt1-3): 33963 and 48451 and 56546
